Experimental data: PubChem BioAssay AID1963847 (Molecular Pharmacology Branch, DTP, NCI, 2024)

Tested on: 415267-285-R-J2-PDC complex spheroid viability
Assay: Anticancer human tumor 415267-285-R-J2-PDC patient-derived breast carcinoma cell line growth inhibition [POLQ]
Conditions: for IC50: curve of first compound; for viability, T/C: stronger effect = lower value
Procedure, shortened: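 Complex spheroid viability model combining PDC tumour cells with endothelial (HUVEC) and MSC stromal cells. Novobiocin, ART-558 or RP6685 were tested singly and in combination with standard and investigational anticancer drugs. Each was titrated in half-log steps from near clinical Cmax, or from 10 microM where Cmax was unknown.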

[1] = second compound 0.0316 µM, first compound 0.0316 µM
[2] = second compound 0.0316 µM, first compound 0.1 µM
[3] = second compound 0.0316 µM, first compound 0.316 µM
[4] = second compound 0.0316 µM, first compound 1 µM
[5] = second compound 0.1 µM, first compound 0.0316 µM
[6] = second compound 0.1 µM, first compound 0.1 µM
[7] = second compound 0.1 µM, first compound 0.316 µM
[8] = second compound 0.1 µM, first compound 1 µM
[9] = second compound 0.316 µM, first compound 0.0316 µM
[10] = second compound 0.316 µM, first compound 0.1 µM
[11] = second compound 0.316 µM, first compound 0.316 µM
[12] = second compound 0.316 µM, first compound 1 µM
[13] = second compound 1 µM, first compound 0.0316 µM
[14] = second compound 1 µM, first compound 0.1 µM
[15] = second compound 1 µM, first compound 0.316 µM
[16] = second compound 1 µM, first compound 1 µM
[17] = second compound 3.16 µM, first compound 0.0316 µM
[18] = second compound 3.16 µM, first compound 0.1 µM
[19] = second compound 3.16 µM, first compound 0.316 µM
[20] = second compound 3.16 µM, first compound 1 µM
[21] = second compound 10 µM, first compound 0.0316 µM
[22] = second compound 10 µM, first compound 0.1 µM
[23] = second compound 10 µM, first compound 0.316 µM
[24] = second compound 10 µM, first compound 1 µM
[25] = second compound 0.0316 µM, first compound 3.16 µM
[26] = second compound 0.0316 µM, first compound 10 µM
[27] = second compound 0.1 µM, first compound 3.16 µM
[28] = second compound 0.1 µM, first compound 10 µM
[29] = second compound 0.316 µM, first compound 3.16 µM
[30] = second compound 0.316 µM, first compound 10 µM
[31] = second compound 1 µM, first compound 3.16 µM
[32] = second compound 1 µM, first compound 10 µM
[33] = second compound 3.16 µM, first compound 3.16 µM
[34] = second compound 3.16 µM, first compound 10 µM
[35] = second compound 10 µM, first compound 3.16 µM
[36] = second compound 10 µM, first compound 10 µM
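Also: spheroids exposed to compounds for one week before readout.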
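For viability, T/C in this document: luminescence used as stand-in measure of viable cells; 100% = DMSO vehicle control viability.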

## COc1cccc(OCCCN)c1-c1cc(Nc2cnc(C#N)cn2)n[nH]1 + Cc1cccc(N(C)C(=O)C2C(O)CCN2c2nc(C)cc(C(F)(F)F)c2C#N)c1
Second compound 0.0316 µM
  IC50: 7.34 nM
Second compound 0.1 µM
  IC50: 6.81 nM
Second compound 0.316 µM
  IC50: 6.37 nM
Second compound 1 µM
  IC50: 5.94 nM
Second compound 3.16 µM
  IC50: 5.9 nM
Second compound 10 µM
  IC50: 5.77 nM
Second compound 0.0316 µM, first compound 0.00316 µM
  viability, T/C: 116%
Second compound 0.0316 µM, first compound 0.01 µM
  viability, T/C: 25.7%
[1]
  viability, T/C: 6.57%
[2]
  viability, T/C: 5.98%
[3]
  viability, T/C: 5.5%
[4]
  viability, T/C: 4.04%
Second compound 0.1 µM, first compound 0.00316 µM
  viability, T/C: 106%
Second compound 0.1 µM, first compound 0.01 µM
  viability, T/C: 22.1%
[5]
  viability, T/C: 5.33%
[6]
  viability, T/C: 6.85%
[7]
  viability, T/C: 7.24%
[8]
  viability, T/C: 4.47%
Second compound 0.316 µM, first compound 0.00316 µM
  viability, T/C: 107%
Second compound 0.316 µM, first compound 0.01 µM
  viability, T/C: 13%
[9]
  viability, T/C: 5.56%
[10]
  viability, T/C: 4.64%
[11]
  viability, T/C: 4.82%
[12]
  viability, T/C: 4.6%
Second compound 1 µM, first compound 0.00316 µM
  viability, T/C: 99.2%
Second compound 1 µM, first compound 0.01 µM
  viability, T/C: 9.45%
[13]
  viability, T/C: 5.53%
[14]
  viability, T/C: 5.41%
[15]
  viability, T/C: 6.23%
[16]
  viability, T/C: 4.72%
Second compound 3.16 µM, first compound 0.00316 µM
  viability, T/C: 97.3%
Second compound 3.16 µM, first compound 0.01 µM
  viability, T/C: 10.1%
[17]
  viability, T/C: 7.08%
[18]
  viability, T/C: 5.58%
[19]
  viability, T/C: 5.55%
[20]
  viability, T/C: 4.93%
Second compound 10 µM, first compound 0.00316 µM
  viability, T/C: 94.3%
Second compound 10 µM, first compound 0.01 µM
  viability, T/C: 9.4%
[21]
  viability, T/C: 6.2%
[22]
  viability, T/C: 10.2%
[23]
  viability, T/C: 5.74%
[24]
  viability, T/C: 5.13%

## CC1COCCN1c1cc(-c2ccnn2C)c2ccnc(-c3ccn[nH]3)c2n1 (stereo unspecified) + COC1C(OC(N)=O)C(O)C(Oc2ccc3c(O)c(NC(=O)c4ccc(O)c(CC=C(C)C)c4)c(=O)oc3c2C)OC1(C)C
Second compound 0.0316 µM
  IC50: < 31.6 nM
Second compound 0.1 µM
  IC50: 36.3 nM
Second compound 0.316 µM
  IC50: < 31.6 nM
Second compound 1 µM
  IC50: 39 nM
Second compound 3.16 µM
  IC50: 35.4 nM
Second compound 10 µM
  IC50: 41.2 nM
[1]
  viability, T/C: 47%
[2]
  viability, T/C: 12.6%
[3]
  viability, T/C: 6.23%
[4]
  viability, T/C: 5.27%
[25]
  viability, T/C: 4.48%
[26]
  viability, T/C: 3.41%
[5]
  viability, T/C: 55.3%
[6]
  viability, T/C: 11.5%
[7]
  viability, T/C: 6.16%
[8]
  viability, T/C: 3.96%
[27]
  viability, T/C: 4.03%
[28]
  viability, T/C: 4.38%
[9]
  viability, T/C: 48.4%
[10]
  viability, T/C: 11.8%
[11]
  viability, T/C: 5.97%
[12]
  viability, T/C: 5.08%
[29]
  viability, T/C: 4.16%
[30]
  viability, T/C: 5.11%
[13]
  viability, T/C: 58.5%
[14]
  viability, T/C: 11.5%
[15]
  viability, T/C: 5.09%
[16]
  viability, T/C: 6.05%
[31]
  viability, T/C: 4.42%
[32]
  viability, T/C: 4.44%
[17]
  viability, T/C: 53.9%
[18]
  viability, T/C: 15.8%
[19]
  viability, T/C: 7.15%
[20]
  viability, T/C: 5.85%
[33]
  viability, T/C: 4.13%
[34]
  viability, T/C: 4.16%
[21]
  viability, T/C: 61.3%
[22]
  viability, T/C: 12.8%
[23]
  viability, T/C: 6.51%
[24]
  viability, T/C: 4.55%
[35]
  viability, T/C: 4.33%
[36]
  viability, T/C: 4.73%

## CC(C)n1c(=O)n(C)c2cnc3cc(F)c(-c4ccc(OCCCN5CCCCC5)nc4)cc3c21 + Cc1cccc(N(C)C(=O)C2C(O)CCN2c2nc(C)cc(C(F)(F)F)c2C#N)c1
Second compound 0.0316 µM
  IC50: > 10000 nM
Second compound 0.1 µM
  IC50: > 10000 nM
Second compound 0.316 µM
  IC50: > 10000 nM
Second compound 1 µM
  IC50: > 10000 nM
Second compound 3.16 µM
  IC50: > 10000 nM
Second compound 10 µM
  IC50: > 10000 nM
[1]
  viability, T/C: 88.5%
[2]
  viability, T/C: 107%
[3]
  viability, T/C: 100%
[4]
  viability, T/C: 110%
[25]
  viability, T/C: 111%
[26]
  viability, T/C: 93.8%
[5]
  viability, T/C: 89.7%
[6]
  viability, T/C: 88.6%
[7]
  viability, T/C: 105%
[8]
  viability, T/C: 101%
[27]
  viability, T/C: 101%
[28]
  viability, T/C: 80.6%
[9]
  viability, T/C: 103%
[10]
  viability, T/C: 98.5%
[11]
  viability, T/C: 105%
[12]
  viability, T/C: 105%
[29]
  viability, T/C: 111%
[30]
  viability, T/C: 92.5%
[13]
  viability, T/C: 102%
[14]
  viability, T/C: 94.8%
[15]
  viability, T/C: 108%
[16]
  viability, T/C: 109%
[31]
  viability, T/C: 104%
[32]
  viability, T/C: 87.5%
[17]
  viability, T/C: 94.4%
[18]
  viability, T/C: 111%
[19]
  viability, T/C: 96.7%
[20]
  viability, T/C: 105%
[33]
  viability, T/C: 87.5%
[34]
  viability, T/C: 81.9%
[21]
  viability, T/C: 99.1%
[22]
  viability, T/C: 86.1%
[23]
  viability, T/C: 90.4%
[24]
  viability, T/C: 96.8%
[35]
  viability, T/C: 87.6%
[36]
  viability, T/C: 81%
